Twelve molecules from patent US20260070945A1, “MACROCYCLIC IMMUNOMODULATORS” (Bristol-Myers Squibb Company, priority 2022, published 2026) can be followed below.

pIC50: −log10 of the molar value. *1 amine or outer side, *2 acyl side, *3 side chain or, on linkers, in order; H or OH if unused. Where a SMILES comes first, the peptide text is derived from it. Bridges are numbered along the chain shown (N, C = ends). [ ]: non-standard residue; d: D form. The star is where a group is joined. ξ: configuration not given here. Phe(3-CF3) = N[C@@H](Cc1cccc(C(F)(F)F)c1)C(=O)O; Phe(4-COOH) = N[C@@H](Cc1ccc(C(=O)O)cc1)C(=O)O; Bip = N[C@@H](Cc1ccc(-c2ccccc2)cc1)C(=O)O; Phe(3-Me) = Cc1cccc(C[C@H](N)C(=O)O)c1; γGlu = O=C(O)[C@H](CCC(=O)[*:2])N[*:1]; NH(CH2)12COOH = O=C(O)CCCCCCCCCCCCN*; Phe(2-F) = N[C@@H](Cc1ccccc1F)C(=O)O; Val(3-OH) = CC(C)(O)[C@H](N)C(=O)O; 4Pal = N[C@@H](Cc1ccncc1)C(=O)O; Aad = N[C@@H](CCCC(=O)O)C(=O)O; Cha = N[C@@H](CC1CCCCC1)C(=O)O; Cit = NC(=O)NCCC[C@H](N)C(=O)O; Ile(3ξ) = CCC(C)[C@H](N)C(=O)O; Thr(3ξ) = CC(O)[C@H](N)C(=O)O; Carboxymethyl = O=C(O)C*; NMeA = CN[C@@H](C)C(=O)O; Orn = NCCC[C@H](N)C(=O)O; dDap = NC[C@@H](N)C(=O)O; Aun = NCCCCCCCCCCC(=O)O; Dab = NCC[C@H](N)C(=O)O; Dap = NC[C@H](N)C(=O)O; AEEA = NCCOCCOCC(=O)O

For one assay, the target named is T1, PD-1/PD-L1 interaction (PE-labeled human PD-L1-Ig binding to Jurkat cell line over-expressing human PD-1) (Homo sapiens, UniProt Q15116).
T1 construct: expressed in transfected cells; host or cells: Jurkat
T1 sequence (Q15116 25-288): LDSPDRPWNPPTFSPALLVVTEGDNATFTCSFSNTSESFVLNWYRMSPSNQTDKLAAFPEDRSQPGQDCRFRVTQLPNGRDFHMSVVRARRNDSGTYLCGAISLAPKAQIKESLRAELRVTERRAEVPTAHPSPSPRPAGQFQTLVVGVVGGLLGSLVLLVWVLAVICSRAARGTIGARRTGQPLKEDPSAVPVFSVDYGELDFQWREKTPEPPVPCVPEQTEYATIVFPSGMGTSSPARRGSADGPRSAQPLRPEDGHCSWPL
Description: Jurkat-PD-1 Cell Binding High-Content Screening Assay (CBA). The note with it: Jurkat-hPD-1 cells, PE-labeled PD-L1-Ig 20 nM final; read-out: Jurkat HPD1 PDL1 IC50. In outline:
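Jurkat cells overexpressing human PD-1 (8×10^3/well, DMEM + 10% FCS) preincubated with compound 2 h at 37 °C, then PE-labelled human PD-L1-Ig (20 nM final) for 1 h. Cells fixed in paraformaldehyde with Hoechst 33342; bound PD-L1 quantified by high-content imaging.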
With `Cc1cccc(C[C@@H]2NC(=O)[C@H](CC(=O)O)NC(=O)[C@H](Cc3ccc(C(=O)O)cc3)NC(=O)[C@H](Cc3ccc(OCC(=O)O)cc3)NC(=O)CSC[C@@H](C(=O)NCC(=O)N[C@@H](CCC(=O)NCCOCCOCC(=O)N[C@@H](CCC(=O)O)C(=O)NCCCCCCCCCCC(=O)O)C(=O)O)NC(=O)[C@H](CO)NC(=O)[C@H](C(C)C)NC(=O)[C@H](CC(C)C)NC(=O)[C@H](CC(N)=O)NC(=O)[C@@H](CC(C)C)NC(=O)[C@H](C)N(C)C(=O)[C@H](C(C)C)NC(=O)[C@H](Cc3ccc(-c4ccccc4)cc3)NC(=O)[C@H](CC(C)C)NC2=O)c1` [Example 1015] ({CH2CO}-Y(Carboxymethyl)[Phe(4-COOH)]D[Phe(3-Me)]L[Bip]V[NMeA][dL]NLVSCG[γGlu][AEEA]E[Aun]-OH; thioether N-14), the negative logarithm of the IC50 (pIC50) was 7.27.
As to `Cc1cccc(C[C@@H]2NC(=O)[C@H](CC(=O)O)NC(=O)[C@H](Cc3ccc(C(=O)O)cc3)NC(=O)[C@H](CCN)NC(=O)CSC[C@@H](C(=O)N[C@@H](CCN)C(=O)NCCCCCCCCCCC(=O)O)NC(=O)[C@H](CO)NC(=O)[C@H](C(C)(C)O)NC(=O)[C@H](CC3CCCCC3)NC(=O)[C@H](CCN)NC(=O)[C@@H](CC(C)C)NC(=O)[C@H](C)N(C)C(=O)[C@H](Cc3ccc(OCC(=O)O)cc3)NC(=O)[C@H](Cc3ccc(-c4ccccc4)cc3)NC(=O)[C@H](Cc3ccccc3F)NC2=O)c1` [Example 1289] ({CH2CO}-[Dab][Phe(4-COOH)]D[Phe(3-Me)][Phe(2-F)][Bip]Y(Carboxymethyl)[NMeA][dL][Dab][Cha][Val(3-OH)]SC[Dab][Aun]-OH; thioether N-14), the negative-log IC50 (pIC50) is 7.49.
For `Cc1cccc(C[C@@H]2NC(=O)[C@H](CC(=O)O)NC(=O)[C@H](Cc3ccncc3)NC(=O)[C@H](Cc3ccc(OCC(=O)O)cc3)NC(=O)CSC[C@@H](C(=O)N[C@@H](CCCN)C(=O)NCCOCCOCC(=O)NCCCCCCCCCCC(=O)O)NC(=O)[C@H]([C@@H](C)O)NC(=O)[C@H](C(C)C)NC(=O)[C@H](CC3CCCCC3)NC(=O)[C@H](CC(N)=O)NC(=O)[C@@H](CC(C)C)NC(=O)[C@H](C)N(C)C(=O)[C@H](Cc3ccc(OCC(=O)O)cc3)NC(=O)[C@H](Cc3ccc(-c4ccccc4)cc3)NC(=O)[C@H](Cc3ccc(OCC(=O)O)cc3)NC2=O)c1` [Example 1358] ({CH2CO}-Y(Carboxymethyl)[4Pal]D[Phe(3-Me)]Y(Carboxymethyl)[Bip]Y(Carboxymethyl)[NMeA][dL]N[Cha]VTC[Orn][AEEA][Aun]-OH; thioether N-14), the negative logarithm of the IC50 (pIC50) is 7.34.
In the case of `CC(C)C[C@@H]1NC(=O)[C@H](Cc2c[nH]c3ccccc23)NC(=O)[C@H](CC(=O)O)NC(=O)[C@H](Cc2ccc(C(=O)O)cc2)NC(=O)[C@H](Cc2ccc(OCC(=O)O)cc2)NC(=O)CSC[C@@H](C(=O)NCC(=O)N[C@@H](CN)C(=O)NCCCCCCCCCCC(=O)O)NC(=O)[C@H](CO)NC(=O)[C@H](C(C)C)NC(=O)[C@H](CC2CCCCC2)NC(=O)[C@H](CCN)NC(=O)[C@@H](CC(C)C)NC(=O)[C@H](C)N(C)C(=O)[C@H](C(C)C)NC(=O)[C@H](Cc2ccc(-c3ccccc3)cc2)NC1=O` [Example 1036] ({CH2CO}-Y(Carboxymethyl)[Phe(4-COOH)]DWL[Bip]V[NMeA][dL][Dab][Cha]VSCG[Dap][Aun]-OH; thioether N-14), the pIC50 was 7.94.
On to `Cc1cccc(C[C@@H]2NC(=O)[C@H](CC(=O)O)NC(=O)[C@H](Cc3ccc(OCC(=O)O)cc3)NC(=O)[C@H](CCCNC(N)=O)NC(=O)CSC[C@@H](C(=O)N[C@@H](CCN)C(=O)NCCCCCCCCCCC(=O)O)NC(=O)[C@H](CO)NC(=O)[C@H](C(C)C)NC(=O)[C@H](CC3CCCCC3)NC(=O)[C@H](CCN)NC(=O)[C@@H](CC(C)C)NC(=O)[C@H](C)N(C)C(=O)[C@H](Cc3ccc(O)cc3)NC(=O)[C@H](Cc3ccc(-c4ccccc4)cc3)NC(=O)[C@H](Cc3ccc(OCC(=O)O)cc3)NC2=O)c1` [Example 1275] ({CH2CO}-[Cit]Y(Carboxymethyl)D[Phe(3-Me)]Y(Carboxymethyl)[Bip]Y[NMeA][dL][Dab][Cha]VSC[Dab][Aun]-OH; thioether N-14), for which the negative-log IC50 (pIC50) was 6.65.
As for `COc1ccc(C[C@@H]2NC(=O)[C@H](Cc3cccc(C)c3)NC(=O)[C@H](CC(=O)O)NC(=O)[C@H](Cc3ccc(C(=O)O)cc3)NC(=O)[C@H](CCN)NC(=O)CSC[C@@H](C(=O)N[C@@H](CCN)C(=O)NCCCCCCCCCCC(=O)O)NC(=O)[C@H](CO)NC(=O)[C@H](C(C)(C)O)NC(=O)[C@H](CC3CCCCC3)NC(=O)[C@H](CCN)NC(=O)[C@@H](CC(C)C)NC(=O)[C@H](C)N(C)C(=O)[C@H](Cc3ccc(OCC(=O)O)cc3)NC(=O)[C@H](Cc3ccc(-c4ccccc4)cc3)NC2=O)cc1` [Example 1291] ({CH2CO}-[Dab][Phe(4-COOH)]D[Phe(3-Me)]Y(Me)[Bip]Y(Carboxymethyl)[NMeA][dL][Dab][Cha][Val(3-OH)]SC[Dab][Aun]-OH; thioether N-14), the pIC50 was 7.64.
Regarding `Cc1cccc(C[C@@H]2NC(=O)[C@H](CC(=O)O)NC(=O)[C@H](Cc3ccc(OCC(=O)O)cc3)NC(=O)[C@H](CCCNC(=N)N)NC(=O)CSC[C@@H](C(=O)N[C@@H](CCN)C(=O)NCCCCCCCCCCC(=O)O)NC(=O)[C@H](C(C)O)NC(=O)[C@H](CO)NC(=O)[C@H](CC3CCCCC3)NC(=O)[C@H](CCN)NC(=O)[C@@H](CC(C)C)NC(=O)[C@H](C)N(C)C(=O)[C@H](Cc3ccc(OCC(=O)O)cc3)NC(=O)[C@H](Cc3ccc(-c4ccccc4)cc3)NC(=O)[C@H](Cc3ccc(OCC(=O)O)cc3)NC2=O)c1` (stereo partly drawn) [Example 2370] ({CH2CO}-RY(Carboxymethyl)D[Phe(3-Me)]Y(Carboxymethyl)[Bip]Y(Carboxymethyl)[NMeA][dL][Dab][Cha]S[Thr(3ξ)]C[Dab][Aun]-OH; thioether N-14), the pIC50 was 7.45.
In the case of `CCC(C)[C@@H]1NC(=O)[C@H](Cc2ccc(-c3ccccc3)cc2)NC(=O)[C@H](CC(C)C)NC(=O)[C@H](Cc2c[nH]c3ccccc23)NC(=O)[C@H](CC(=O)O)NC(=O)[C@H](Cc2ccc(C(=O)O)cc2)NC(=O)[C@H](Cc2ccc(OCC(=O)O)cc2)NC(=O)CSC[C@@H](C(=O)NCCOCCOCC(=O)N[C@H](CN)C(=O)NCCOCCOCC(=O)NCCCCCCCCCCC(=O)O)NC(=O)[C@H](CO)NC(=O)[C@H](C(C)C)NC(=O)[C@H](CC2CCCCC2)NC(=O)[C@H](CCN)NC(=O)[C@@H](CC(C)C)NC(=O)[C@H](C)N(C)C1=O` (stereo partly drawn) [Example 2056] ({CH2CO}-Y(Carboxymethyl)[Phe(4-COOH)]DWL[Bip][Ile(3ξ)][NMeA][dL][Dab][Cha]VSC[AEEA][dDap][AEEA][Aun]-OH; thioether N-14), the pIC50 was 7.70.
With `COC[C@@H]1NC(=O)CSC[C@@H](C(=O)N[C@@H](CCN)C(=O)NCCCCCCCCCCCCC(=O)O)NC(=O)[C@H](CCC(=O)O)NC(=O)[C@H](C(C)C)NC(=O)[C@H](CC2CCCCC2)NC(=O)[C@H](CCN)NC(=O)[C@@H](CC(C)C)NC(=O)[C@H](C)N(C)C(=O)[C@H](CCCNC(N)=O)NC(=O)[C@H](Cc2ccc(-c3ccccc3)cc2)NC(=O)[C@H](Cc2ccc(C(=O)O)cc2)NC(=O)[C@H](Cc2cccc(C(F)(F)F)c2)NC(=O)[C@H](CC(=O)O)NC(=O)[C@H](Cc2ccc(OCC(=O)O)cc2)NC1=O` [Example 1139] ({CH2CO}-S(Me)Y(Carboxymethyl)D[Phe(3-CF3)][Phe(4-COOH)][Bip][Cit][NMeA][dL][Dab][Cha]VEC[Dab]-{NH(CH2)12COOH}; thioether N-14), the pIC50 is 7.90.
As for `CCC(C)[C@@H]1NC(=O)[C@H](Cc2ccc(-c3ccccc3)cc2)NC(=O)[C@H](C(C)C)NC(=O)[C@H](Cc2c[nH]c3ccccc23)NC(=O)[C@H](CC(=O)O)NC(=O)[C@H](Cc2ccc(OCC(=O)O)cc2)NC(=O)[C@H](C(C)O)NC(=O)CSC[C@@H](C(=O)N[C@H](CC(N)=O)C(=O)NCCOCCOCC(=O)N[C@@H](CCC(=O)N[C@@H](CCCN)C(=O)NCCCCCCCCCCC(=O)O)C(=O)O)NC(=O)[C@H](CO)NC(=O)[C@H](C(C)C)NC(=O)[C@H](CC(C)C)NC(=O)[C@H](CCN)NC(=O)[C@@H](CC(C)C)NC(=O)[C@H](C)N(C)C1=O` (stereo partly drawn) [Example 2051] ({CH2CO}-[Thr(3ξ)]Y(Carboxymethyl)DWV[Bip][Ile(3ξ)][NMeA][dL][Dab]LVSC[dN][AEEA][γGlu][Orn][Aun]-OH; thioether N-14), the negative-log IC50 (pIC50) was 6.96.
Still for that read-out and setting: as for `Cc1cccc(C[C@@H]2NC(=O)[C@H](CC(=O)O)NC(=O)[C@H](Cc3ccc(OCC(=O)O)cc3)NC(=O)[C@H](C(C)O)NC(=O)CSC[C@@H](C(=O)N[C@@H](CCN)C(=O)NCCOCCOCC(=O)NCCCCCCCCCCC(=O)O)NC(=O)[C@H](CCCC(=O)O)NC(=O)[C@H](C(C)C)NC(=O)[C@H](CC3CCCCC3)NC(=O)[C@H](CCN)NC(=O)[C@@H](CC(C)C)NC(=O)[C@H](C)N(C)C(=O)[C@H](Cc3ccc(OCC(=O)O)cc3)NC(=O)[C@H](Cc3ccc(-c4ccccc4)cc3)NC(=O)[C@H](Cc3ccc(C(=O)O)cc3)NC2=O)c1` (stereo partly drawn) [Example 2476] ({CH2CO}-[Thr(3ξ)]Y(Carboxymethyl)D[Phe(3-Me)][Phe(4-COOH)][Bip]Y(Carboxymethyl)[NMeA][dL][Dab][Cha]V[Aad]C[Dab][AEEA][Aun]-OH; thioether N-14), the figure is 7.84.

The same assay, now with this note: PE-labeled PD-L1-Ig 20 nM final, Jurkat-hPD-1 cells; read-out: Jurkat HPD1 PDL1 IC50.
On to `CC(=O)NCCCC[C@@H]1NC(=O)[C@H](C(C)(C)O)NC(=O)[C@H](CC2CCCCC2)NC(=O)[C@H](CCN)NC(=O)[C@@H](CC(C)C)NC(=O)[C@H](C)N(C)C(=O)[C@H](Cc2ccc(OCC(=O)O)cc2)NC(=O)[C@H](Cc2ccc(-c3ccccc3)cc2)NC(=O)[C@H](Cc2ccc(OCC(=O)O)cc2)NC(=O)[C@H](Cc2cccc(C)c2)NC(=O)[C@H](CC(=O)O)NC(=O)[C@H](Cc2ccc(OCC(=O)O)cc2)NC(=O)[C@H](C(C)O)NC(=O)CSC[C@@H](C(=O)N[C@@H](CCN)C(=O)NCCOCCOCC(=O)N[C@@H](CCC(=O)NCCCCCCCCCCCCC(=O)O)C(=O)O)NC1=O` (stereo partly drawn) [Example 2658] ({CH2CO}-[Thr(3ξ)]Y(Carboxymethyl)D[Phe(3-Me)]Y(Carboxymethyl)[Bip]Y(Carboxymethyl)[NMeA][dL][Dab][Cha][Val(3-OH)]K(Ac)C[Dab][AEEA]E(NH(CH2)12COOH)-OH; thioether N-14), for which the pIC50 is 7.63.
